Organism: Rattus norvegicus
Experiment: Open TG-GATES - Regimen: Single
Type: toxicity, organism-based, Sprague-Dawley
Design: regimen Single, gender Male, age 6 weeks
Settings: in vivo, po, 50 mg/kg, route gavage, dose level Middle; for APTT / Bas / Eos / Fbg / Hb / Ht / Lym / MCH / MCHC / MCV / Mono / Neu / PT / Plat / RBC / Ret / WBC: tissue Blood; for KIDNEY_L / KIDNEY_R / KIDNEY_TOTAL: tissue Kidney; for LIVER: tissue Liver; for A/G / ALP / ALT / AST / BUN / CRE / Ca / Cl / DBIL / GLC / IP / K / LDH / Na / PL / RALB / TBIL / TC / TG / TP / gamma-GTP: tissue Plasma

Nc1nc(N)c2nc(-c3ccccc3)c(N)nc2n1
TERMINAL_BW (3 h): 214.5 g | APTT (3 h): 16.6 s | Bas (3 h): 0% | Eos (3 h): 0.8% | Fbg (3 h): 295.2 mg/dL | Hb (3 h): 14.3 g/dL | Ht (3 h): 43.1% | Lym (3 h): 77% | MCH (3 h): 21.2 pg | MCHC (3 h): 33.2% | MCV (3 h): 64 fL | Mono (3 h): 3.4% | Neu (3 h): 18.4% | PT (3 h): 13.9 s | Plat (3 h): 121.1 x10_4/uL | RBC (3 h): 673.2 x10_4/ul | Ret (3 h): 7% | WBC (3 h): 86.9 x10_2/uL | KIDNEY_L (3 h): 1 g | KIDNEY_R (3 h): 1 g | KIDNEY_TOTAL (3 h): 1.9 g | LIVER (3 h): 9.5 g | A/G (3 h): 0.9 | ALP (3 h): 1490.4 IU/L | ALT (3 h): 42.4 IU/L | AST (3 h): 73.2 IU/L | BUN (3 h): 12.2 mg/dL | CRE (3 h): 0.2 mg/dL | Ca (3 h): 11 mg/dL | Cl (3 h): 105.2 meq/L | DBIL (3 h): 0.006 mg/dL | GLC (3 h): 165 mg/dL | IP (3 h): 8.7 mg/dL | K (3 h): 4.7 meq/L | LDH (3 h): 59.4 IU/L | Na (3 h): 141.4 meq/L | PL (3 h): 160.8 mg/dL | RALB (3 h): 2.7 g/dL | TBIL (3 h): 0.062 mg/dL | TC (3 h): 90.6 mg/dL | TG (3 h): 56.2 mg/dL | TP (3 h): 5.7 g/dL | gamma-GTP (3 h): 1.4 IU/L | TERMINAL_BW (6 h): 207.3 g | APTT (6 h): 16.9 s | Bas (6 h): 0% | Eos (6 h): 1% | Fbg (6 h): 337 mg/dL | Hb (6 h): 14.3 g/dL | Ht (6 h): 43.5% | Lym (6 h): 69.8% | MCH (6 h): 20.9 pg | MCHC (6 h): 32.9% | MCV (6 h): 63.5 fL | Mono (6 h): 2.2% | Neu (6 h): 27% | PT (6 h): 14.1 s | Plat (6 h): 124.3 x10_4/uL | RBC (6 h): 685.4 x10_4/ul | Ret (6 h): 7.5% | WBC (6 h): 81.3 x10_2/uL | KIDNEY_L (6 h): 1 g | KIDNEY_R (6 h): 1 g | KIDNEY_TOTAL (6 h): 1.9 g | LIVER (6 h): 9 g | A/G (6 h): 1 | ALP (6 h): 1195.2 IU/L | ALT (6 h): 35.2 IU/L | AST (6 h): 72.4 IU/L | BUN (6 h): 11.4 mg/dL | CRE (6 h): 0.2 mg/dL | Ca (6 h): 10.9 mg/dL | Cl (6 h): 106.8 meq/L | DBIL (6 h): 0.01 mg/dL | GLC (6 h): 167.6 mg/dL | IP (6 h): 9.1 mg/dL | K (6 h): 5 meq/L | LDH (6 h): 62.6 IU/L | Na (6 h): 142.4 meq/L | PL (6 h): 149.4 mg/dL | RALB (6 h): 2.8 g/dL | TBIL (6 h): 0.06 mg/dL | TC (6 h): 81.2 mg/dL | TG (6 h): 54 mg/dL | TP (6 h): 5.6 g/dL | gamma-GTP (6 h): 1 IU/L | TERMINAL_BW (9 h): 208.4 g | APTT (9 h): 18 s | Bas (9 h): 0% | Eos (9 h): 1% | Fbg (9 h): 310.4 mg/dL | Hb (9 h): 14.1 g/dL | Ht (9 h): 42.6% | Lym (9 h): 70.2% | MCH (9 h): 20.9 pg | MCHC (9 h): 33.1% | MCV (9 h): 63 fL | Mono (9 h): 2% | Neu (9 h): 26% | PT (9 h): 13.9 s | Plat (9 h): 116.9 x10_4/uL | RBC (9 h): 677 x10_4/ul | Ret (9 h): 7.4% | WBC (9 h): 88.1 x10_2/uL | KIDNEY_L (9 h): 1 g | KIDNEY_R (9 h): 1 g | KIDNEY_TOTAL (9 h): 2 g | LIVER (9 h): 8.5 g | A/G (9 h): 0.9 | ALP (9 h): 1205.8 IU/L | ALT (9 h): 37 IU/L | AST (9 h): 72 IU/L | BUN (9 h): 11.4 mg/dL | CRE (9 h): 0.2 mg/dL | Ca (9 h): 10.8 mg/dL | Cl (9 h): 105.8 meq/L | DBIL (9 h): 0.008 mg/dL | GLC (9 h): 161.8 mg/dL | IP (9 h): 10.6 mg/dL | K (9 h): 4.6 meq/L | LDH (9 h): 48.2 IU/L | Na (9 h): 142.6 meq/L | PL (9 h): 133.6 mg/dL | RALB (9 h): 2.7 g/dL | TBIL (9 h): 0.056 mg/dL | TC (9 h): 74.2 mg/dL | TG (9 h): 37.4 mg/dL | TP (9 h): 5.6 g/dL | gamma-GTP (9 h): 1.2 IU/L | TERMINAL_BW (24 h): 227.4 g | APTT (24 h): 16.3 s | Bas (24 h): 0% | Eos (24 h): 1% | Fbg (24 h): 314.2 mg/dL | Hb (24 h): 14.1 g/dL | Ht (24 h): 42% | Lym (24 h): 79.8% | MCH (24 h): 22 pg | MCHC (24 h): 33.5% | MCV (24 h): 65.5 fL | Mono (24 h): 2.4% | Neu (24 h): 16.6% | PT (24 h): 13.9 s | Plat (24 h): 130 x10_4/uL | RBC (24 h): 642 x10_4/ul | Ret (24 h): 7.4% | WBC (24 h): 86.7 x10_2/uL | KIDNEY_L (24 h): 1 g | KIDNEY_R (24 h): 1 g | KIDNEY_TOTAL (24 h): 2 g | LIVER (24 h): 10.9 g | A/G (24 h): 0.9 | ALP (24 h): 1815 IU/L | ALT (24 h): 47 IU/L | AST (24 h): 67.4 IU/L | BUN (24 h): 16.2 mg/dL | CRE (24 h): 0.2 mg/dL | Ca (24 h): 11.3 mg/dL | Cl (24 h): 105.8 meq/L | DBIL (24 h): 0.01 mg/dL | GLC (24 h): 179.8 mg/dL | IP (24 h): 8.2 mg/dL | K (24 h): 4 meq/L | LDH (24 h): 60.6 IU/L | Na (24 h): 144.2 meq/L | PL (24 h): 155.4 mg/dL | RALB (24 h): 2.7 g/dL | TBIL (24 h): 0.04 mg/dL | TC (24 h): 81 mg/dL | TG (24 h): 92 mg/dL | TP (24 h): 5.5 g/dL | gamma-GTP (24 h): 1 IU/L
